Tests used:
[1] = system: Lewis Rats; assay: Inhibition of the lipopolysaccharide (LPS)-induced lung neutrophilia; assay type: in vivo, rat; conditions: 1 mg/kg p.o., 2 h before LPS provocation; BAL 6 h after provocation
Protocol: The inhibition of pulmonary neutrophil infiltration by the inventive substances is tested on male Lewis Rats (250–350 g). On the day of the experiments, the animals are placed individually in open 1 L Plexiglas boxes, which are connected to a head-nose exposure device. The animals are exposed to an aerosol of a lipopolysaccharide suspension (100 μg LPS/mL of 0.1% hydroxylamine solution) in PBS (LPS provocation). The LPS/hydroxylamine aerosol is nebulized by a nebulizer (Bird Micronebulizer, Palm Springs Calif., USA), which is operated with compressed air (0.2 MPa). The exposure time is 40 minutes, normal controls being nebulized also for 40 minutes with an aerosol of 0.1% hydroxylamine solution in PBS.
Six hours after the LPS provocation, there is a maximum, massive migration of neutrophil granulocytes into the lungs of the animals. At this time, the animals are anesthetized with an excess of ethyl urethane (1.5 g/kg of body weight i.p.) and a bronchoalveolar lavage (BAL) with 3×4 mL of Hank's balance solution is carried out. The total cell count and the number of neutrophil granulocytes of the pooled BAL liquid are subsequently determined with an automatic cell differentiation instrument (Bayer Diagnostics Technicon HIE). For each animal, the neutrophiles (NEUTRO) in the BAL are calculated in millions/animal: NEUTRO/μl×BAL recovery (mL)=NEUTRO/animal.
For each test, 2 control groups were also run (nebulization with 0.1% hydroxylamine solution in PBS and nebulization with 100 μg LPS/mL of 0.1% hydroxylamine solution in PBS).
The percentage inhibition of the neutrophilia of the experimental group, treated with substance, was calculated according to the following formula: {((LPSC−SC)−(LPSD−SC))/(LPSC−SC)}×100%=% inhibition SC=vehicle-treated control group challenged with 0.1% hydroxylamine solution; LPSC=vehicle-treated control group challenged with LPS (100 μg/mL 0.1% hydroxylamine solution); LPSD=substance-treated experimental group challenged with LPS (100 μg/mL 0.1% hydroxylamine solution) […]

[2] = system: release of TNFα from cells of nasal polyps; assay: Inhibition of the release of TNFα from cells of nasal polyps (anti-IgE stimulated, ELISA); assay type: cell-based; conditions: Homo sapiens, anti-IgE stimulated nasal polyp cells
Protocol: The experimental arrangement corresponds essentially to the method described by Campbell, A. M. and J. Bousquet (Anti-allergic activity of H1-blockers, Int. Arch. Allergy Immunol., 1993, 101, 308–310). Nasal polyps form the starting material (material from patients, who had been subjected to a surgical treatment).
The tissue is washed with RPMI 1640 and subsequently digested with protease (2.0 mg/mL), collagenase (1.5 mg/mL), hyaluronidase (0.75 mg/mL), and DNAse (0.05 mg/mL) for two hours at 37° C. (1 g of tissue and 4 mL of RPMI 1640 with enzymes). The cells obtained, a mixture of epithelial cells, monocytes, macrophages, lymphocytes, fibroblasts and granulocytes, are filtered and washed by being centrifuged repeatedly in culture solution and sensitized passively by the addition of human IgE and the cell suspension is brought to a concentration of 2 million cells/mL in RPMI 1640 (supplemented by antibiotics, 10% fetal calf serum, 2 mM of glutamine and 25 mM of Hepes). This suspension is distributed on six-well cell culture plates (1 ml/well). The cells are pre-incubated for 30 minutes with the test substances in different final concentrations and subsequently stimulated to release TNFα by the addition of anti-IgE (7.2 μg/mL). The maximum release into the culture medium takes place after about 18 hours. During this period, the cells are incubated at 37° C. and 5% carbon dioxide. The culture medium (supernatant) is recovered by centrifuging (five minutes at 4000 rpm) and kept at −70° C. until the cytokin is determined. The TNFα in the supernatant is determined with so-called sandwich ELISAs (basic material Pharmingen), with which cytokin concentrations ranging from 30 to 1000 pg/mL can be determined.
Cells, not stimulated with anti IgE, hardly produce any TNFα; on the other hand, stimulated cells secrete large amounts of TNFα, which can be reduced, for example, by PDE 4 inhibitors as a function of the dose. From the percentage inhibition (TNFα release by the cells, stimulated with anti IgE=100%) of the substances tested at different concentrations, the IC50 (concentration at 50% inhibition) is calculated.

[3] = system: actively sensitized Brown Norway Rats; assay: Inhibition of the late phase eosinophilia 48 hours after inhalative ovalbumin challenge; assay type: in vivo, rat; conditions: 2 h before allergen challenge, BAL 48 h after challenge
Protocol: The inhibition of pulmonary eosinophilia infiltration by the inventive substances is tested on male Brown Norway Rats (200–250 g), which had been actively sensitized against ovalbumin (OVA). The rats were sensitized by subcutaneous injections of a suspension of 10 μg OVA together with 20 mg of aluminum hydroxide as adjuvant in 0.5 mL of physiological salt solution per animal on days 1, 14 and 21. In addition, the animals at the same time received Bordetella pertussis vaccine dilution injected 0.25 mL i.p. per animal. On the 28th day of the experiment, the animals are placed individually in open 1 L Plexiglas boxes, which are connected to a head-nose exposure device. The animals are exposed to an aerosol of 1.0% ovalbumin suspension (allergen challenge). The ovalbumin aerosol is produced by a nebulizer (Bird Micronebulizer, Palm Springs Calif., USA), which is operated with compressed air (0.2 MPa). The exposure time is one hour, normal controls being nebulized also for one hour with an aerosol of 0.9% salt solution.
Forty-eight hours after the allergen challenge, there is a massive migration of eosinophilic granulocytes into the lungs of the animals. At this time, the animals are anesthetized with an excess of ethyl urethane (1.5 g/kg of body weight i.p.) and a bronchoalveolar lavage (BAL) with 3×4 mL of Hank's balance solution is carried out. The total cell count and the number of eosinophilic granulocytes of the pooled BAL liquid are subsequently determined with an automatic cell differentiation instrument (Bayer Diagnostics Technicon HIE). For each animal, the eosinophiles (EOS) in the BAL are calculated in millions/animal: EOS/μl×BAL recovery (mL)=EOS/animal.
For each test, 2 control groups were run (nebulization with physiological salt solution and nebulization with OVA solution).
The percentage inhibition of the eosinophilia of the experimental group, treated with substance, was calculated according to the following formula: {((OVAC−SC)−(OVAD−SC))/(OVAC−SC)}×100%=% inhibition (SC=vehicle-treated control group challenged with 0.9% salt solution; OVAC=vehicle-treated control group challenged with 1% ovalbumin suspension; OVAD=substance-treated experimental group challenged with 1% ovalbumin suspension)
The test substances are applied i.p. or orally as a suspension in 10% polyethylene glycol 300 and 0.5% 5-hydroxyethylcellulose for two hours before the allergen challenge. The control groups are treated with the vehicle in accordance with the application form of the test substance.

Structure (SMILES) | Inhibition of neutrophilia (table titled Inhibition of Eosinophilia) [1] [%] | inhibition at 1 µM ([2]; concentration 1.0 μmole/L) [%] | Inhibition of Eosinophilia ([3]; 10 mg/kg i.p.) [%] | Inhibition of Eosinophilia ([3]; 10 mg/kg p.o.) [%] | inhibition at 0.3 µM ([2]; concentration 0.3 μmole/L) [%]
CC(C)Cn1cc(C(=O)C(=O)Nc2c(Cl)cncc2Cl)c2cccnc21 [Example 27] | 52 | 91 | 50 | 70 | 
O=C(Nc1c(Cl)cncc1Cl)C(=O)c1cn(Cc2ccc(F)cc2)c2ncccc12 [Example 14] | 80 |  | 62 | 59 | 92
